Consider 26 compounds from patent publication US9994551B2, “Pyridazine derivatives as RORc modulators” (Genentech, Inc., priority 2015, dated 2018).

The target in this assay is T1, RORc ligand binding domain (Homo sapiens, UniProt P51449).
T1 construct: host or cells: E. coli
T1 sequence (P51449 269-508 limits assumed): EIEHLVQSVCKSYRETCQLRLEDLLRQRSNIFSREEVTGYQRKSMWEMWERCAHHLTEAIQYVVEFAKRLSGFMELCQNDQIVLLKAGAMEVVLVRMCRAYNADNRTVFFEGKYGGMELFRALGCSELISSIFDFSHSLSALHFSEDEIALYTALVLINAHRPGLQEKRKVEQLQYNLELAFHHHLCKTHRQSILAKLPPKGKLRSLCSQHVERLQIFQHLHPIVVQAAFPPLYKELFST
In words: In vitro RORc ligand binding assay (25-[3H]hydroxycholesterol displacement, filter binding).

For orientation: IC50 means the point on the concentration scale where inhibition reaches its midpoint. Read a low IC50 as greater potency in that assay. Compound `CC1(C)[C@H]2CC[C@]1([C@H]1CN(C(=O)c3ccc(=O)[nH]n3)CCO1)c1nnc(-c3c(F)cccc3F)cc12` (stereo in doubt) [Compound 123, 3-[2-[5-(2,6-difluorophenyl)-11,11-dimethyl-3,4-diazatricyclo[6.2.1.02,7]undeca-2,4,6-trien-1-yl]morpholine-4-carbonyl]-1H-pyridazin-6-one] yielded an IC50 of 0.72 µM.
For `CC1(C)[C@H]2CC[C@]1([C@H]1CCCN(S(C)(=O)=O)C1)c1nnc(-c3c(F)cccc3F)cc12` [Compound 95, (5R,8R)-3-(2,6-difluorophenyl)-9,9-dimethyl-8-((R)-1-(methylsulfonyl)piperidin-3-yl)-5,6,7,8-tetrahydro-5,8-methanocinnoline], the IC50 is 0.344 µM.
The same measure for `CC[C@@H](O[C@@]12CC[C@@H](c3cc(-c4c(F)cccc4F)nnc31)C2(C)C)C(=O)N(C)CCOC` [Compound 100, (R)-2-(((5S,8R)-3-(2,6-difluorophenyl)-9,9-dimethyl-5,6,7,8-tetrahydro-5,8-methanocinnolin-8-yl)oxy)-N-(2-methoxyethyl)-N-methylbutanamide]: 0.0464 µM; for `CC(CO)NC(=O)N1CCO[C@H]([C@@]23CC[C@@H](c4cc(-c5c(F)cccc5F)nnc42)C3(C)C)C1` (stereo in doubt) [Compound 141, 2-[5-(2,6-difluorophenyl)-11,11-dimethyl-3,4-diazatricyclo[6.2.1.02,7]undeca-2,4,6-trien-1-yl]-N-(2-hydroxy-1-methyl-ethyl)morpholine-4-carboxamide]: 0.0095 µM.
For the compound `CC1(C)[C@H]2CC[C@]1([C@@H]1CN(c3nc(CO)co3)CCO1)c1nnc(-c3c(F)cccc3F)cc12` [Compound 130, [2-[2-[5-(2,6-difluorophenyl)-11,11-dimethyl-3,4-diazatricyclo[6.2.1.02,7]undeca-2,4,6-trien-1-yl]morpholin-4-yl]oxazol-4-yl]methanol], the IC50 was 0.0088 µM.
The same measure for `CC1(C)[C@H]2CC[C@]1(OCC(N)=O)c1nnc(-c3c(F)cccc3F)cc12` [Compound 47, 2-(((5S,8R)-3-(2,6-difluorophenyl)-9,9-dimethyl-5,6,7,8-tetrahydro-5,8-methanocinnolin-8-yl)oxy)acetamide]: 0.118 µM; for `CC(C)NC(=O)N1CCC[C@H]([C@@]23CC[C@@H](c4cc(-c5c(F)cccc5F)nnc42)C3(C)C)C1` [Compound 137, 3-[5-(2,6-difluorophenyl)-11,11-dimethyl-3,4-diazatricyclo[6.2.1.02,7]undeca-2,4,6-trien-1-yl]-N-isopropyl-piperidine-1-carboxamide]: 0.042 µM; for `CC[C@@H](O[C@@]12CC[C@@H](c3cc(-c4c(F)cccc4F)nnc31)C2(C)C)C(=O)NCC(=O)N(C)C` [Compound 104, (R)-2-(((5S,8R)-3-(2,6-difluorophenyl)-9,9-dimethyl-5,6,7,8-tetrahydro-5,8-methanocinnolin-8-yl)oxy)-N-(2-(dimethylamino)-2-oxoethyl)butanamide]: 0.0829 µM.
The compound `CC1(C)[C@H]2CC[C@]1([C@H]1CCCN(C(=O)NC3CC(O)C3)C1)c1nnc(-c3c(F)cccc3F)cc12` (stereo in doubt) [Compound 148, 3-[5-(2,6-difluorophenyl)-11,11-dimethyl-3,4-diazatricyclo[6.2.1.02,7]undeca-2,4,6-trien-1-yl]-N-(3-hydroxycyclobutyl)piperidine-1-carboxamide] yielded an IC50 of 0.37 µM.
In the case of `C[C@@H](O[C@@]12CC[C@@H](c3cc(-c4c(F)cccc4F)nnc31)C2(C)C)C(N)=O` [Compound 42, (R)-2-(((5S,8R)-3-(2,6-difluorophenyl)-9,9-dimethyl-5,6,7,8-tetrahydro-5,8-methanocinnolin-8-yl)oxy)propanamide] it was 0.0144 µM.
For `CC1(C)[C@H]2CC[C@]1([C@H]1CCCN(C(=O)NC3CCC3)C1)c1nnc(-c3c(F)cccc3F)cc12` [Compound 149, N-cyclobutyl-3-[5-(2,6-difluorophenyl)-11,11-dimethyl-3,4-diazatricyclo[6.2.1.02,7]undeca-2,4,6-trien-1-yl]piperidine-1-carboxamide], the IC50 is 0.0082 µM.
In the case of `CC1(C)[C@H]2CC[C@]1([C@@H]1CN(C(=O)CO)CCO1)c1nnc(-c3c(F)cccc3F)cc12` [Compound 75, 1-((R)-2-((5R,8R)-3-(2,6-difluorophenyl)-9,9-dimethyl-5,6,7,8-tetrahydro-5,8-methanocinnolin-8-yl)morpholino)-2-hydroxyethanone] it was 0.234 µM.
In the case of `CCOC(=O)c1coc(N2CCO[C@H]([C@@]34CC[C@@H](c5cc(-c6c(F)cccc6F)nnc53)C4(C)C)C2)n1` [Compound 126, ethyl 2-[2[5-(2,6-difluorophenyl)-11,11-dimethyl-3,4-diazatricyclo[6.2.1.02,7]undeca-2,4,6-trien-1-yl]morpholin-4-yl]oxazole-4-carboxylate] it was 0.43 µM; in that of `CC[C@@H](O[C@@]12CC[C@@H](c3cc(-c4c(F)cccc4F)nnc31)C2(C)C)C(=O)NCC1(O)COC1` [Compound 57, (R)-2-(((5S,8R)-3-(2,6-difluorophenyl)-9,9-dimethyl-5,6,7,8-tetrahydro-5,8-methanocinnolin-8-yl)oxy)-N-((3-hydroxyoxetan-3-yl)methyl)butanamide], 0.0445 µM.
The same measure for `CNC(=O)N1CCC[C@H]([C@@]23CC[C@@H](c4cc(-c5c(F)cccc5F)nnc42)C3(C)C)C1` [Compound 96, (R)-3-((5R,8R)-3-(2,6-difluorophenyl)-9,9-dimethyl-5,6,7,8-tetrahydro-5,8-methanocinnolin-8-yl)-N-methylpiperidine-1-carboxamide]: 0.013 µM.
On to `CC[C@H](O[C@@]12CC[C@@H](c3cc(-c4c(F)cccc4F)nnc31)C2(C)C)c1nnc(C)o1` [Compound 21, 2-((S)-1-(((5S,8R)-3-(2,6-difluorophenyl)-9,9-dimethyl-5,6,7,8-tetrahydro-5,8-methanocinnolin-8-yl)oxy)propyl)-5-methyl-1,3,4-oxadiazole], for which the IC50 was 0.051 µM.
Take `CC1(C)C2CCC1(C1CCCN(C(=O)c3ncco3)C1)c1nnc(-c3c(F)cccc3F)cc12` (centres unmarked) [Compound 159, [3-[5-(2,6-difluorophenyl)-11,11-dimethyl-3,4-diazatricyclo[6.2.1.02,7]undeca-2,4,6-trien-1-yl]-1-piperidyl]-oxazol-2-yl-methanone]: the IC50 was 0.0045 µM.
The same measure for `CC(=O)N1CCO[C@@H]([C@@]23CC[C@@H](c4cc(-c5c(F)cccc5F)nnc42)C3(C)C)C1` [Compound 72, 1-((S)-2-((5R,8R)-3-(2,6-difluorophenyl)-9,9-dimethyl-5,6,7,8-tetrahydro-5,8-methanocinnolin-8-yl)morpholino)ethanone]: 0.119 µM; for `CC1(C)[C@H]2CC[C@]1([C@H]1CCCN(c3cc[nH]c(=O)c3)C1)c1nnc(-c3c(F)cccc3F)cc12` [Compound 172, 4-[3-[5-(2,6-difluorophenyl)-11,11-dimethyl-3,4-diazatricyclo[6.2.1.02,7]undeca-2,4,6-trien-1-yl]-1-piperidyl]-1H-pyridin-2-one]: 0.02 µM; for `C[C@H](O)CNC(=O)N1CCC[C@H]([C@@]23CC[C@@H](c4cc(-c5c(F)cccc5F)nnc42)C3(C)C)C1` [Compound 151, 3-[5-(2,6-difluorophenyl)-11,11-dimethyl-3,4-diazatricyclo[6.2.1.02,7]undeca-2,4,6-trien-1-yl]-N-(2-hydroxypropyl)piperidine-1-carboxamide]: 0.0077 µM.
In the case of `CC1(C)[C@H]2CC[C@]1([C@H]1CCCN(C(=O)NCCO)C1)c1nnc(-c3c(F)cccc3F)cc12` (stereo in doubt) [Compound 152, 3-[5-(2,6-difluorophenyl)-11,11-dimethyl-3,4-diazatricyclo[6.2.1.02,7]undeca-2,4,6-trien-1-yl]-N-(2-hydroxyethyl)piperidine-1-carboxamide] it was 0.0074 µM.
The same measure for `CN(C)C(=O)N1CCO[C@H]([C@@]23CC[C@@H](c4cc(-c5c(F)cccc5F)nnc42)C3(C)C)C1` [Compound 88, (R)-2-((5R,8R)-3-(2,6-difluorophenyl)-9,9-dimethyl-5,6,7,8-tetrahydro-5,8-methanocinnolin-8-yl)-N,N-dimethylmorpholine-4-carboxamide]: 0.369 µM; for `CC1(C)[C@H]2CC[C@]1([C@H]1CCCN(C(=O)NC3COC3)C1)c1nnc(-c3c(F)cccc3F)cc12` [Compound 157, 3-[5-(2,6-difluorophenyl)-11,11-dimethyl-3,4-diazatricyclo[6.2.1.02,7]undeca-2,4,6-trien-1-yl]-N-(oxetan-3-yl)piperidine-1-carboxamide]: 0.0061 µM.
On to `CCOC(=O)c1coc(N2CCO[C@@H]([C@@]34CC[C@@H](c5cc(-c6c(F)cccc6F)nnc53)C4(C)C)C2)n1` [Compound 127, ethyl 2-[2-[5-(2,6-difluorophenyl)-11,11-dimethyl-3,4-diazatricyclo[6.2.1.02,7]undeca-2,4,6-trien-1-yl]morpholin-4-yl]oxazole-4-carboxylate], for which the IC50 was 0.005 µM.
As to `CC1(C)[C@H]2CC[C@]1([C@@H]1CN(C(=O)C(O)CO)CCO1)c1nnc(-c3c(F)cccc3F)cc12` (stereo partly drawn) [Compound 78, 1-((R)-2-((5R,8R)-3-(2,6-difluorophenyl)-9,9-dimethyl-5,6,7,8-tetrahydro-5,8-methanocinnolin-8-yl)morpholino)-2,3-dihydroxypropan-1-one], the IC50 is 0.213 µM.
The same measure for `CC1(C)[C@H]2CC[C@]1(Oc1ccccn1)c1nnc(-c3c(F)cccc3F)cc12` [Compound 12, (5S,8R)-3-(2,6-difluorophenyl)-9,9-dimethyl-8-(pyridin-2-yloxy)-5,6,7,8-tetrahydro-5,8-methanocinnoline]: 0.0425 µM.
